According to US6994970B1, “Peptides for combating the autoantibodies that are responsible for dilatative cardiomyopathy (DCM)” (Fresenius Medical Care Affina GmbH, priority 1999, dated 2006):

Test system: auto-antibodies bound to the affinity chromatographic column
Test: Eluted auto-antibodies tested for preferential binding to peptide 1 or peptide 2 bound to a solid phase
Set-up: species or system human
Description: After elution from the affinity matrix, the auto-antibodies bound to the affinity chromatographic column were tested for preferential binding to peptide 1 or peptide 2 by means of peptide 1 and peptide 2 bound to a solid phase. Auto-antibody type 1 prefers the binding of peptide 1, and auto-antibody type 2 prefers the binding of peptide 2.

| preferential binding of auto-antibodies to peptide 1 or peptide 2 (auto-antibodies of person 2, peptides bound to a solid phase) | Sequence | preferential binding of auto-antibodies to peptide 1 or peptide 2 (auto-antibodies of person 1, peptides bound to a solid phase) |
| --- | --- | --- |
| preferably bind | HWWRAESDEARRSYNDPKC [Peptide 2] |  |
|  | TGSFFCELWTSGKK [Peptide 1] | preferably bind |
